Experimental data: US12577247B2 (BUGWORKS RESEARCH, INC., priority 2021, dated 2026)

Columns and labels:
A2B receptor = target: T1, A2B receptor (Homo sapiens, UniProt P29275); test: A2bR antagonism IC50, cAMP TR-FRET in HEK-293 cells, high concentration of adenosine (30 μM); conditions: A2BR IC50 (nM) (@30 μM Adenosine), HEK-293 cells expressing A2B receptor; agonist adenosine 30 μM; 2% HSA; inhibition of cAMP;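 also: compounds preincubated 10 min with cells, then adenosine stimulation 30 min at room temperature in buffer with Rolipram 100 µM and EHNA 30 µM, TR-FRET read after 1 h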
T1 sequence (P29275 1-332): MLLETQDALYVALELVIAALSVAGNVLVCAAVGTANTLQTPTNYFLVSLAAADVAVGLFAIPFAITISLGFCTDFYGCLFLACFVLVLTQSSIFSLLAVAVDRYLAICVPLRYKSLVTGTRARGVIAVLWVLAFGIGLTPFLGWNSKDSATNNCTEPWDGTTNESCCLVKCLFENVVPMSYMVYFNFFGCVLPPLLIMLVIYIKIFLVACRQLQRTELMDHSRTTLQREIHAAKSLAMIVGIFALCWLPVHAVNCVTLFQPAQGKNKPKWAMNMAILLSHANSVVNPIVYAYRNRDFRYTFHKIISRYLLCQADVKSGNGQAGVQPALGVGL

A2A receptor = target: T2, A2A receptor (Homo sapiens, UniProt P29274); test: A2aR antagonism IC50, cAMP TR-FRET in HEK-293 cells, high concentration of adenosine (30 μM); assay type: cell-based; conditions: HEK-293 cells expressing A2A receptor; agonist adenosine 30 μM; 2% HSA; inhibition of cAMP; read-out: A2AR IC50 (nM) (@30 μM Adenosine);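 also: compounds added 10 min before adenosine, then 30 min stimulation at room temperature in buffer with 100 µM rolipram and 30 µM EHNA, signal read 1 h after detection reagents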
T2 construct: host or cells: HEK-293
T2 sequence (P29274 whole entry): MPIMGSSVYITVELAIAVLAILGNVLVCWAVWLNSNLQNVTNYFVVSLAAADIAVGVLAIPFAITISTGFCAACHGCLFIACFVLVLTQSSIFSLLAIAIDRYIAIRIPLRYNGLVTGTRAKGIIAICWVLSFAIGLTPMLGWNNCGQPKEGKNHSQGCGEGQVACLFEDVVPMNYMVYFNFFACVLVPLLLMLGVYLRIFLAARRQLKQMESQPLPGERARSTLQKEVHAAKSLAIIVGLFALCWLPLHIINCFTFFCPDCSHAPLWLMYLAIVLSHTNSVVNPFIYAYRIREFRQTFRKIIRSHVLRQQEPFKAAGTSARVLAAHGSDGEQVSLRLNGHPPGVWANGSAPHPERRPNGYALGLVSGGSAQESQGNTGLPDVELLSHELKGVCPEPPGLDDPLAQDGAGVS
Experimental: A Time-Resolved Fluorescence Energy Transfer (TR-FRET) assay was used to show the inhibition of this cAMP production in HEK cells upon treatment with compounds of the Formula I of the present disclosure.
HEK-293 cells expressing A2A receptor (#ES-011-C) or A2B receptor (#ES 013-C) were obtained from PerkinElmer. Cells were maintained in DMEM medium supplemented with 10% FBS and 200 μg/mL of G418 at 37° C. and 5% CO2. The cells were cultured in antibiotic free medium for a period of 16-20 hours prior to the assay. All subsequent steps of the assay are performed at room temperature (22-24° C.). […] About 1500 cells per well were pre-incubated for 10 minutes with the compounds of the present invention before adding the agonist Adenosine at a high concentration (30 μM) for a total stimulation time of 30 minutes. […] The assays were conducted in a stimulation buffer containing 1×DMEM, 5 mM HEPES, 2% Human serum albumin (HSA), 100 μM Rolipram and 30 μM erythro-9-(2-hydroxy-3-nonyl) adenine (EHNA). Serial dilutions of compounds were made in stimulation buffer to achieve a final concentration of high micromolar in a reaction volume of 10 μL. The total reaction volume was 10 μL (5 μL of cells, 2.5 μL of antagonist and 2.5 μL of agonist). […] The stimulation was ended, and the reaction completed by adding 5 μL of 4× Eu-cAMP tracer working solution and 5 μL of 4× ULight-anti-cAMP working solution. The TR FRET signal was measured after 1-hour incubation using a Tecan M1000 or a PerkinElmer Victor Nivo plate reader.

SMILES	IC50 (A2B receptor)	IC50 (A2A receptor)
CCc1c(C(F)F)nn2c(N)c(C#N)c(NCCc3cccn(CCO)c3=O)nc12 [Example 131, 7-amino-2-(difluoromethyl)-3-ethyl-5-((2-(1-(2-hydroxyethyl)-2-oxo-1,2-dihydropyridin-3-yl)ethyl)amino) pyrazolo[1,5-a]pyrimidine-6-carbonitrile]	> 15000 nM	1460 nM
Cc1nn2c(N)c(C#N)c(NCCc3ccn(C4(CCN)CC4)n3)nc2c1Cl [Example 151, 7-amino-5-((2-(1-(1-(2-aminoethyl)cyclopropyl)-1H-pyrazol-3-yl)ethyl)amino)-3-chloro-2-methylpyrazolo[1,5-a]pyrimidine-6-carbonitrile]	4610 nM	95 nM
CCc1c(C)nn2c(N)c(C#N)c(NCCc3cccc(C(C)O)n3)nc12 (racemic) [Example 100, 7-amino-3-ethyl-5-((2-(6-(1-hydroxyethyl)pyridin-2-yl)ethyl)amino)-2-methylpyrazolo[1,5-a] pyrimidine-6-carbonitrile]	1010 nM	139 nM
CCc1c(C)nn2c(N)c(C#N)c(NCCc3ccn(CCC[S+](C)[O-])n3)nc12 (single isomer, unassigned; (-)) [Example 162a, (−)-7-amino-3-ethyl-2-methyl-5-((2-(1-(3-(methylsulfinyl)propyl)-1H-pyrazol-3-yl)ethyl)amino)pyrazolo[1,5-a]pyrimidine-6-carbonitrile]	5790 nM	1880 nM
Cc1nn2c(N)c(C#N)c(NCCc3ccn(C4CCCC4CN)n3)nc2c1Cl (centres unmarked) [Example 118, 7-amino-5-((2-(1-(2-(aminomethyl)cyclopentyl)-1H-pyrazol-3-yl)ethyl)amino)-3-chloro-2-methylpyrazolo[1,5-a] pyrimidine-6-carbonitrile]	7850 nM	78 nM
Cc1nn2c(N)c(C#N)c(NCCc3ccn(C4(CO)CC4)n3)nc2c1CC1CC1 [Example 74, 7-amino-3-(cyclopropylmethyl)-5-((2-(1-(1-(hydroxymethyl)cyclopropyl)-1H-pyrazol-3-yl)ethyl)amino)-2-methylpyrazolo[1,5-a]pyrimidine-6-carbonitrile]	1080 nM	398 nM
Cc1nn2c(N)c(C#N)c(NCCc3ccn(C4CCC4CNCCO)n3)nc2c1Cl (centres unmarked) [Example 117, 7-amino-3-chloro-5-((2-(1-(2-(((2-hydroxyethyl)amino)methyl)cyclobutyl)-1H-pyrazol-3-yl)ethyl)amino)-2-methylpyrazolo[1,5-a]pyrimidine-6-carbonitrile]	3060 nM	66 nM
CCc1c(C)nn2c(N)c(C#N)c(NCCc3ccc(F)c(CO)n3)nc12 [Example 91, 7-amino-3-ethyl-5-((2-(5-fluoro-6-(hydroxymethyl)315yridine-2-yl)ethyl)amino)-2-methylpyrazolo[1,5-a]pyrimidine-6-carbonitrile]	1620 nM	628 nM
CCc1c(C)nn2c(N)c(C#N)c(NCCc3cccn(CC[S+](C)[O-])c3=O)nc12 (single isomer, unassigned; (+)) [Example 144a, (+)7-amino-3-ethyl-2-methyl-5-((2-(1-(2-(methylsulfinyl)ethyl)-2-oxo-1,2-dihydropyridin-3-yl)ethyl)amino) pyrazolo[1,5-a]pyrimidine-6-carbonitrile]	821 nM	327 nM
Cc1nn2c(N)c(C#N)c(NCCc3ccn(C4CCCC4CO)n3)nc2c1Cl (centres unmarked) [Example 114, 7-amino-3-chloro-5-((2-(1-(2-(hydroxymethyl)cyclopentyl)-1H-pyrazol-3-yl)ethyl)amino)-2-methylpyrazolo[1,5-a]pyrimidine-6-carbonitrile]	4380 nM	96 nM

Second part, the compound after the results:

IC50 (A2B receptor)	IC50 (A2A receptor)	SMILES
2610 nM	506 nM	CCc1c(C)nn2c(N)c(C#N)c(NCCc3cccn(CCCN)c3=O)nc12 [Example 136, 7-amino-5-((2-(1-(3-aminopropyl)-2-oxo-1,2-dihydropyridin-3-yl)ethyl)amino)-3-ethyl-2-methylpyrazolo[1,5-a]pyrimidine-6-carbonitrile]
2610 nM	102 nM	Cc1nn2c(N)c(C#N)c(NCCc3ccn(C4CCC4CO)n3)nc2c1C (single isomer, unassigned; (-)) [Example 104b, (−)-7-amino-5-((2-(1-(2-(hydroxymethyl)cyclobutyl)-1H-pyrazol-3-yl)ethyl)amino)-2,3-dimethylpyrazolo[1,5-a]pyrimidine-6-carbonitrile]
6690 nM	554 nM	Cc1nn2c(N)c(C#N)c(NCCc3ccn(C4COCC4CO)n3)nc2c1C (single isomer, unassigned; (+)) [Example 133a, (+)-7-amino-5-((2-(1-(4-(hydroxymethyl)tetrahydrofuran-3-yl)-1H-pyrazol-3-yl)ethyl)amino)-2,3-dimethylpyrazolo[1,5-a]pyrimidine-6-carbonitrile]
10000 nM	104 nM	Cc1nn2c(N)c(C#N)c(NCCc3ccn(C4(CO)CC4)n3)nc2c1C(F)(F)F [Example 94, 7-amino-5-((2-(1-(1-(hydroxymethyl)cyclopropyl)-1H-pyrazol-3-yl)ethyl)amino)-2-methyl-3-(trifluoromethyl) pyrazolo[1,5-a]pyrimidine-6-carbonitrile]
1550 nM	224 nM	CCc1c(C)nn2c(N)c(C#N)c(NCCc3cccn(CCOC)c3=O)nc12 [Example 107, 7-amino-3-ethyl-5-((2-(1-(2-methoxyethyl)-2-oxo-1,2-dihydropyridin-3-yl)ethyl)amino)-2-methylpyrazolo[1,5-a] pyrimidine-6-carbonitrile]
895 nM	245 nM	CCc1c(C)nn2c(N)c(C#N)c(NCCc3ccn(C4COCC4CO)n3)nc12 (racemic) [Example 121, (+−)-7-amino-3-ethyl-5-((2-(1-(4-(hydroxymethyl)tetrahydrofuran-3-yl)-1H-pyrazol-3-yl)ethyl)amino)-2-methyl pyrazolo[1,5-a]pyrimidine-6-carbonitrile]
700 nM	100 nM	CCc1c(C)nn2c(N)c(C#N)c(NCCc3cc(C)n(C4COCC4CO)n3)nc12 (single isomer, unassigned) [Example 167]
1590 nM	50 nM	CCc1c(C)nn2c(N)c(C#N)c(NCCc3cc(C)n(C4(CO)CC4)n3)nc12 [Example 76, 7-amino-3-ethyl-5-((2-(1-(1-(hydroxymethyl)cyclopropyl)-5-methyl-1H-pyrazol-3-yl)ethyl)amino)-2-methylpyrazolo[1,5-a]pyrimidine-6-carbonitrile]
1790 nM	209 nM	Cc1nn2c(N)c(C#N)c(NCCc3cccc(CCO)n3)nc2c1C [Example 152, 7-amino-5-((2-(6-(2-hydroxyethyl)pyridin-2-yl)ethyl)amino)-2,3-dimethylpyrazolo[1,5-a] pyrimidine-6-carbonitrile]
10800 nM	84 nM	Cc1nn2c(N)c(C#N)c(NCCc3ccn(C4(CCO)CC4)n3)nc2c1Cl [Example 112, 7-amino-3-chloro-5-((2-(1-(1-(2-hydroxyethyl)cyclopropyl)-1H-pyrazol-3-yl)ethyl)amino)-2-methylpyrazolo[1,5-a] pyrimidine-6-carbonitrile]
> 15000 nM	> 15000 nM	Cc1nn2c(N)c(C#N)c(NCCc3cnn(C4(CO)CC4)c3)nc2c1Cl [Example 73, 7-amino-3-chloro-5-((2-(1-(1-(hydroxymethyl)cyclopropyl)-1H-pyrazol-4-yl)ethyl)amino)-2-methylpyrazolo[1,5-a] pyrimidine-6-carbonitrile]
988 nM	43 nM	CCc1c(C)nn2c(N)c(C#N)c(NCCc3ccn(C4(CCNC(C)=O)CC4)n3)nc12 [Example 149, N-(2-(1-(3-(2-((7-amino-6-cyano-3-ethyl-2-methylpyrazolo[1,5-a]pyrimidin-5-yl)amino)ethyl)-1H-pyrazol-1-yl)cyclopropyl)ethyl) acetamide]
11100 nM	72 nM	CCc1c(C)nn2c(N)c(C#N)c(NCCc3ccn(C4(CNCC[S+](C)[O-])CC4)n3)nc12 (single isomer, unassigned; (-)) [Example 163a, (−)-7-amino-3-ethyl-2-methyl-5-((2-(1-(1-(((2-(methylsulfinyl)ethyl)amino)methyl)cyclopropyl)-1H-pyrazol-3-yl)ethyl)amino) pyrazolo[1,5-a]pyrimidine-6-carbonitrile]
815 nM	254 nM	CCc1c(C)nn2c(N)c(C#N)c(NCCc3cccn(CC[S+](C)[O-])c3=O)nc12 (single isomer, unassigned; (-)) [Example 144b, (−)7-amino-3-ethyl-2-methyl-5-((2-(1-(2-(methylsulfinyl)ethyl)-2-oxo-1,2-dihydropyridin-3-yl)ethyl)amino) pyrazolo[1,5-a]pyrimidine-6-carbonitrile]
2050 nM	88 nM	Cc1nn2c(N)c(C#N)c(NCCc3cccn(CCCO)c3=O)nc2c1C [Example 138, 7-amino-5-((2-(1-(3-hydroxypropyl)-2-oxo-1,2-dihydropyridin-3-yl)ethyl)amino)-2,3-dimethylpyrazolo[1,5-a] pyrimidine-6-carbonitrile]
